Laboratory results as given in PubChem BioAssay AID1845212 (Molecular Pharmacology Branch, DTP, NCI, 2023).

System: NCI-H719 tumor spheroids, viability
Test: Anticancer human tumor NCI-H719 cell line growth inhibition;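 further: spheroids exposed to compounds for seven days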;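 on viability, T/C: percent viability relative to DMSO vehicle control as 100%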
Conditions: spheroids with HUVEC and MSC; for IC50: curve of first compound; for viability, T/C: stronger effect = lower value
Procedure, shortened: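 Complex spheroids of malignant cells with endothelial cells and mesenchymal stem cells; agents alone or combined, from near clinical Cmax (or 10 microM if unknown) down in half-log steps, 0.25% DMSO final.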

[1] = second compound 30 pM, first compound 0.00949 µM
[2] = second compound 30 pM, first compound 0.03 µM
[3] = second compound 30 pM, first compound 0.0949 µM
[4] = second compound 30 pM, first compound 0.3 µM
[5] = second compound 30 pM, first compound 0.949 µM
[6] = second compound 30 pM, first compound 3 µM
[7] = second compound 94.9 pM, first compound 0.00949 µM
[8] = second compound 94.9 pM, first compound 0.03 µM
[9] = second compound 94.9 pM, first compound 0.0949 µM
[10] = second compound 94.9 pM, first compound 0.3 µM
[11] = second compound 94.9 pM, first compound 0.949 µM
[12] = second compound 94.9 pM, first compound 3 µM
[13] = second compound 0.0003 µM, first compound 0.00949 µM
[14] = second compound 0.0003 µM, first compound 0.03 µM
[15] = second compound 0.0003 µM, first compound 0.0949 µM
[16] = second compound 0.0003 µM, first compound 0.3 µM
[17] = second compound 0.0003 µM, first compound 0.949 µM
[18] = second compound 0.0003 µM, first compound 3 µM
[19] = second compound 0.000949 µM, first compound 0.00949 µM
[20] = second compound 0.000949 µM, first compound 0.03 µM
[21] = second compound 0.000949 µM, first compound 0.0949 µM
[22] = second compound 0.000949 µM, first compound 0.3 µM
[23] = second compound 0.000949 µM, first compound 0.949 µM
[24] = second compound 0.000949 µM, first compound 3 µM
[25] = second compound 0.003 µM, first compound 0.00949 µM
[26] = second compound 0.003 µM, first compound 0.03 µM
[27] = second compound 0.003 µM, first compound 0.0949 µM
[28] = second compound 0.003 µM, first compound 0.3 µM
[29] = second compound 0.003 µM, first compound 0.949 µM
[30] = second compound 0.003 µM, first compound 3 µM

CNCc1ccc(-c2cc(-c3nc(-c4ccc(S(=O)(=O)C(C)C)cc4)cnc3N)on2)cc1 + COc1cc2c(cc1O)CCNC21CSC2c3c(OC(C)=O)c(C)c4c(c3C(COC1=O)N1C(O)C3Cc5cc(C)c(OC)c(O)c5C(C21)N3C)OCO4
IC50 (second compound 30 pM): 84.2 nM
IC50 (second compound 94.9 pM): < 9.49 nM
IC50 (second compound 0.0003 µM): < 9.49 nM
IC50 (second compound 0.000949 µM): < 9.49 nM
IC50 (second compound 0.003 µM): < 9.49 nM
viability, T/C [1]: 79.9%
viability, T/C [2]: 86.5%
viability, T/C [3]: 45%
viability, T/C [4]: 15.5%
viability, T/C [5]: 10.5%
viability, T/C [6]: 1.88%
viability, T/C [7]: 34.3%
viability, T/C [8]: 29.2%
viability, T/C [9]: 14.2%
viability, T/C [10]: 8.3%
viability, T/C [11]: 9.95%
viability, T/C [12]: 0.36%
viability, T/C [13]: 8.48%
viability, T/C [14]: 25.4%
viability, T/C [15]: 8.28%
viability, T/C [16]: 10.4%
viability, T/C [17]: 9.76%
viability, T/C [18]: 0.75%
viability, T/C [19]: 8.38%
viability, T/C [20]: 9.01%
viability, T/C [21]: 8.98%
viability, T/C [22]: 9.91%
viability, T/C [23]: 10.3%
viability, T/C [24]: 0.62%
viability, T/C [25]: 0.5%
viability, T/C [26]: 1.4%
viability, T/C [27]: 0.58%
viability, T/C [28]: 0.82%
viability, T/C [29]: 0.56%
viability, T/C [30]: 1.15%

Cc1cc(C)c(CNC(=O)c2cc(-c3ccc(CN4CCOCC4)cc3)cc3c2cnn3C2CCCC2)c(=O)[nH]1 + COc1cc2c(cc1O)CCNC21CSC2c3c(OC(C)=O)c(C)c4c(c3C(COC1=O)N1C(O)C3Cc5cc(C)c(OC)c(O)c5C(C21)N3C)OCO4
IC50 (second compound 30 pM): > 10000 nM
IC50 (second compound 94.9 pM): < 31.6 nM
IC50 (second compound 0.0003 µM): < 31.6 nM
IC50 (second compound 0.000949 µM): < 31.6 nM
IC50 (second compound 0.003 µM): < 31.6 nM
viability, T/C (second compound 30 pM, first compound 0.0316 µM): 90.3%
viability, T/C (second compound 30 pM, first compound 0.1 µM): 100%
viability, T/C (second compound 30 pM, first compound 0.316 µM): 92.1%
viability, T/C (second compound 30 pM, first compound 1 µM): 78.7%
viability, T/C (second compound 30 pM, first compound 3.16 µM): 83.1%
viability, T/C (second compound 30 pM, first compound 10 µM): 56.2%
viability, T/C (second compound 94.9 pM, first compound 0.0316 µM): 24%
viability, T/C (second compound 94.9 pM, first compound 0.1 µM): 26.2%
viability, T/C (second compound 94.9 pM, first compound 0.316 µM): 37.6%
viability, T/C (second compound 94.9 pM, first compound 1 µM): 25.5%
viability, T/C (second compound 94.9 pM, first compound 3.16 µM): 40.4%
viability, T/C (second compound 94.9 pM, first compound 10 µM): 32.2%
viability, T/C (second compound 0.0003 µM, first compound 0.0316 µM): 6.57%
viability, T/C (second compound 0.0003 µM, first compound 0.1 µM): 8.67%
viability, T/C (second compound 0.0003 µM, first compound 0.316 µM): 7.48%
viability, T/C (second compound 0.0003 µM, first compound 1 µM): 8.65%
viability, T/C (second compound 0.0003 µM, first compound 3.16 µM): 11.9%
viability, T/C (second compound 0.0003 µM, first compound 10 µM): 6.02%
viability, T/C (second compound 0.000949 µM, first compound 0.0316 µM): 6.46%
viability, T/C (second compound 0.000949 µM, first compound 0.1 µM): 7.33%
viability, T/C (second compound 0.000949 µM, first compound 0.316 µM): 6.11%
viability, T/C (second compound 0.000949 µM, first compound 1 µM): 6.61%
viability, T/C (second compound 0.000949 µM, first compound 3.16 µM): 7.09%
viability, T/C (second compound 0.000949 µM, first compound 10 µM): 4.83%
viability, T/C (second compound 0.003 µM, first compound 0.0316 µM): 0.34%
viability, T/C (second compound 0.003 µM, first compound 0.1 µM): 0.8%
viability, T/C (second compound 0.003 µM, first compound 0.316 µM): 0.7%
viability, T/C (second compound 0.003 µM, first compound 1 µM): 1.08%
viability, T/C (second compound 0.003 µM, first compound 3.16 µM): 0.44%
viability, T/C (second compound 0.003 µM, first compound 10 µM): 0.8%

Cc1sc2c(c1C)C(c1ccc(Cl)cc1)=NC(CC(=O)Nc1ccc(O)cc1)c1nnc(C)n1-2 (stereo not given) + COc1cc2c(cc1O)CCNC21CSC2c3c(OC(C)=O)c(C)c4c(c3C(COC1=O)N1C(O)C3Cc5cc(C)c(OC)c(O)c5C(C21)N3C)OCO4
IC50 (second compound 30 pM): 139 nM
IC50 (second compound 94.9 pM): < 9.49 nM
IC50 (second compound 0.0003 µM): < 9.49 nM
IC50 (second compound 0.000949 µM): < 9.49 nM
IC50 (second compound 0.003 µM): < 9.49 nM
viability, T/C [1]: 77.2%
viability, T/C [2]: 90.2%
viability, T/C [3]: 69.2%
viability, T/C [4]: 11.1%
viability, T/C [5]: 3.27%
viability, T/C [6]: 2.11%
viability, T/C [7]: 34.7%
viability, T/C [8]: 33.6%
viability, T/C [9]: 35%
viability, T/C [10]: 7.23%
viability, T/C [11]: 3.48%
viability, T/C [12]: 1.41%
viability, T/C [13]: 8.51%
viability, T/C [14]: 6.28%
viability, T/C [15]: 6.64%
viability, T/C [16]: 4.03%
viability, T/C [17]: 1.94%
viability, T/C [18]: 2.8%
viability, T/C [19]: 6.63%
viability, T/C [20]: 6.95%
viability, T/C [21]: 4.47%
viability, T/C [22]: 1.87%
viability, T/C [23]: 1.26%
viability, T/C [24]: 0.53%
viability, T/C [25]: 0.27%
viability, T/C [26]: 0.37%
viability, T/C [27]: 0.18%
viability, T/C [28]: 0.13%
viability, T/C [29]: 0.18%
viability, T/C [30]: 0.31%

Cn1ncnc1[C@H]1c2n[nH]c(=O)c3cc(F)cc(c23)N[C@@H]1c1ccc(F)cc1 + COc1cc2c(cc1O)CCNC21CSC2c3c(OC(C)=O)c(C)c4c(c3C(COC1=O)N1C(O)C3Cc5cc(C)c(OC)c(O)c5C(C21)N3C)OCO4
IC50 (second compound 30 pM): < 9.49 nM
IC50 (second compound 94.9 pM): < 9.49 nM
IC50 (second compound 0.0003 µM): < 9.49 nM
IC50 (second compound 0.000949 µM): < 9.49 nM
IC50 (second compound 0.003 µM): < 9.49 nM
viability, T/C [1]: 13.1%
viability, T/C [2]: 10.3%
viability, T/C [3]: 8.87%
viability, T/C [4]: 10.9%
viability, T/C [5]: 8.74%
viability, T/C [6]: 6.49%
viability, T/C [7]: 8.85%
viability, T/C [8]: 7.16%
viability, T/C [9]: 8.84%
viability, T/C [10]: 7.47%
viability, T/C [11]: 7.26%
viability, T/C [12]: 7.49%
viability, T/C [13]: 9.25%
viability, T/C [14]: 8.07%
viability, T/C [15]: 9.38%
viability, T/C [16]: 10.2%
viability, T/C [17]: 7.28%
viability, T/C [18]: 7.06%
viability, T/C [19]: 7.36%
viability, T/C [20]: 7.49%
viability, T/C [21]: 7.37%
viability, T/C [22]: 6.85%
viability, T/C [23]: 5.96%
viability, T/C [24]: 4.33%
viability, T/C [25]: 0.57%
viability, T/C [26]: 0.36%
viability, T/C [27]: 0.96%
viability, T/C [28]: 0.6%
viability, T/C [29]: 0.86%
viability, T/C [30]: 0.88%
